Test results from patent publication US20050032124A1, “Identification of genotype-selective agents for treating Huntington's disease” (priority 2003, published 2005).

What was measured:
[1] = system: PC12 cells expressing Htt-Q103; assay: PC12 Htt-Q103 toxicity assay, Alamar Blue viability; type: cell-based, rat; set-up: rescue of Htt-Q103 toxicity: dose or concentration left out as unconfirmed
Excerpt: In the first cell system, Applicants developed, in collaboration with Dr. Erik Schweitzer (UCLA), a high-throughput screen (HTS) for compounds that rescue polyQ-induced apoptosis in immortalized rat neuronal cells (Suhr S T, et al., Proc Natl Acad Sci U S A 1998, 95: 7999-8004). PC12 rat pheochromocytoma cells were transfected with exon-1 of the human huntingtin gene containing either 25 or 103 N-terminal polyQ repeats. For enhanced stability the repeat portion consists of alternating CAG/CAA repeats (FIG. 11A). In addition, the expression construct incorporates enhanced green fluorescent protein (EGFP) as a reporter that enables tracking of the fusion proteins by direct immunofluorescence microscopy or biochemical (immunoprecipitation or Western blotting) detection with anti-EGFP antibodies (Schweitzer E S, et al., submitted). Finally, expression is regulated using the Bombyx mori ecdysone receptor and ecdysone analog, tebufenozide (Suhr S T, et al., Proc Natl Acad Sci U S A 1998, 95: 7999-8004). […]
The high-throughput screen developed by Applicants using the PC12 cell system uses the fluorescent viability dye Alamar Blue™ (FIG. 11B). […] The Z-factor is a commonly used quantitative index for maximal signal separation and minimal variability. […]

[2] = system: BJ primary cells; assay: Sensitization of primary cells by co-treatment, calcein AM viability staining; type: cell-based, human; conditions: for effect on calcein AM viability staining, alone: BJ primary cells
Excerpt: (A-C) Western blot of lysates from BJ, BJ-TERT, BJ-TERT/LT/ST, BJ-TERT/LT/ST/RAS^V12, BJ-TERT/LT/RAS^V12 and BJ-TERT/LT/RAS^V12/ST cells with an antibody directed against topoisomerase II (A) or TOPI (B, C). In panel (C), cells were transfected with an siRNA directed against TOPI, lamic A/C or with a control double strand DNA duplex of the same length (TOPI dsDNA). In each case, the blot was probed with an antibody against eIF-4E to identify differences in the amount of protein loaded. The relative amount is quantitated below each band. […] Cell number was determined after transfection with an siRNA directed against TOPI and treatment with the indicated concentrations of camptothecin. (E) Okadaic acid, an inhibitor of PP2A and other cellular phosphatases, sensitizes primary human cells to camptothecin. BJ primary cells were treated simultaneously with the indicated concentrations of both camptothecin and okadaic acid and the effect on calcein AM viability staining was determined. […] BJ primary cells were treated with the indicated concentrations of okadaic acid and the expression level of TOPI was determined by western blot. The relative amount is quantitated below each band.
The compounds in group (iii) are camptothecin (CPT) and a novel compound from a combinatorial library, which Applicants have named erastin, for eradicator of RAS and ST-expressing cells (FIG. 2). Efficient CPT-induced and erastin-induced cell death requires the presence of both ST and RAS^V12 (FIGS. 3 and 4 and Table 1). Although CPT and erastin have a similar genetic basis of selectivity, they have distinct mechanisms of action. […] The phosphatase inhibitor okadaic acid was capable of sensitizing otherwise resistant BJ primary cells to CPT (FIG. 5E), possibly because okadaic acid upregulates TOPI (FIG. 5F).

[3] = system: topoisomerase I (TOPI); assay: Western blot for TOPI expression; type: cell-based, human; conditions: BJ primary cells
Excerpt: (A-C) Western blot of lysates from BJ, BJ-TERT, BJ-TERT/LT/ST, BJ-TERT/LT/ST/RAS^V12, BJ-TERT/LT/RAS^V12 and BJ-TERT/LT/RAS^V12/ST cells with an antibody directed against topoisomerase II (A) or TOPI (B, C). In panel (C), cells were transfected with an siRNA directed against TOPI, lamic A/C or with a control double strand DNA duplex of the same length (TOPI dsDNA). In each case, the blot was probed with an antibody against eIF-4E to identify differences in the amount of protein loaded. The relative amount is quantitated below each band. […] Cell number was determined after transfection with an siRNA directed against TOPI and treatment with the indicated concentrations of camptothecin. (E) Okadaic acid, an inhibitor of PP2A and other cellular phosphatases, sensitizes primary human cells to camptothecin. BJ primary cells were treated simultaneously with the indicated concentrations of both camptothecin and okadaic acid and the effect on calcein AM viability staining was determined. […] BJ primary cells were treated with the indicated concentrations of okadaic acid and the expression level of TOPI was determined by western blot. The relative amount is quantitated below each band. […]

[4] = system: BJELR cells (BJ-TERT/LT/ST/RAS^V12); assay: Screen of ACL library for suppressors of erastin activity (calcein AM); type: cell-based, human; conditions: 4 μg/ml compound, 5 μg/ml erastin
Method: ACL library comprises 1,540 compounds and all compounds were prepared in DMSO at […] in 384-well polypropylene plates and stored at −20° C. Replica daughter plates for each library plate were prepared using Zymark Scilone ALH. The daughter plates were diluted 50 fold in DMEM and compound concentration in the daughter plate is 80 μg/ml with 2% DMSO. In assay plate compound from the daughter plate is diluted 20 fold with cell suspension, thus final concentration of each compound is 4 μg/ml.
BJELR cells were seeded at 6000 cells/well (57μl) (for co-treatment screen) and 5000 cells/well (57 μl) (for pretreatment screen) in 384-well black, clear bottom plates using syringe bulk dispenser. For co-treatment suppressor screen, cells were treated with 3 μl of compound from the daughter plates of ACL library (final concentration in assay plate at 4 μg/ml) and at the same time treated with 5 μg/ml of erastin. Compound transfer was done using 384 fixed cannula head. Plates were incubated for 48 hours at 37° C. in incubator with 5% CO2. For the pretreatment screens, cells were pre-incubated with the compound from ACL daughter library plate for overnight and then treated with 5 μg/ml of erastin for further 48 hours. […] Fluorescence intensity was determined using Fusion platereader with filters centered in an excitation of 485 nm and emission of 535 nm. […]

[5] = system: BJELR cells (BJ-TERT/LT/ST/RAS^V12) versus BJEH cells (BJ-TERT); assay: Erastin analogs: activity and selectivity in tumor cells versus normal cells; type: cell-based, human
Excerpt: Applicants additionally tested 135 analogs of erastin for activity and selectivity in tumor cells versus normal cells. […] This compound was named erastin B (see FIG. 8). […] BJELR cells are BJ-TERT/LT/ST/RAS^V12 cells, and BJEH are BJ-TERT cells.

COC(=O)CC(NC(=O)OC(C)(C)C)C(=O)CF [BOC-D-FMK, Boc-Asp(Ome)-fluoromethyl ketone]
rescue of the Htt-Q103-induced cytotoxicity ([1]; 50 μM, added at the time of tebufenozide induction): ≥ 100% | rescue of Htt-Q103 toxicity ([1]; 72 hour induction with tebufenozide): rescues Htt-Q103 toxicity

C=C1[C@@H](O)[C@@H]2O[C@]3(CC[C@H](/C=C/[C@@H](C)[C@@H]4CC(C)=C[C@@]5(O[C@H](C[C@@](C)(O)C(=O)O)CC[C@H]5O)O4)O3)CC[C@H]2O[C@@H]1[C@@H](O)C[C@H](C)[C@H]1O[C@@]2(CCCCO2)CC[C@H]1C [okadaic acid]
sensitization of cells to camptothecin ([2]; BJ (or BJ-TERT) cells, simultaneous treatment): renders BJ cells sensitive to camptothecin | sensitization of cells to erastin ([2]; BJ or BJ-TERT cells): does not render BJ or BJ-TERT cells sensitive to erastin | effect on calcein AM viability staining, alone ([2]; 3.4 nM): no effect on its own | effect on calcein AM viability staining, alone ([2]; highest concentrations tested): kills BJ cells | expression of TOPI (western blot) [3]: stimulates expression of TOPI

Cc1c(C)c2c(c(C)c1O)CC[C@@](C)(CCC[C@H](C)CCC[C@H](C)CCCC(C)C)O2 [α-tocopherol]
suppression of erastin activity [4]: suppress erastin activity

erastin B
activity and selectivity in tumor cells versus normal cells [5]: active and selective, but less potent than erastin
